| melting point [°C] | SMILES |
| --- | --- |
| 239 to 241 | CN(C)C=Nn1cc(-c2ccc([N+](=O)[O-])o2)nn1 |
| 123 to 124 | CC(=O)CC1CN=C(c2cc3cccc(N(C)S(=O)(=O)c4cccs4)c3[nH]2)S1 (stereo unspecified) |
| 120 to 123 | CN1CCC(=C2c3ccc(F)cc3Sc3ccc(F)cc32)CC1 |
| 214 to 216 | CCOC(=O)N1CCc2nc3ccc(N)cc3c(C)c2CC1 |
| 194 to 195 | Cc1sc(NS(=O)(=O)c2cccc(Cl)c2C)nc1CC(=O)N1CCOCC1 |
| 132 to 134 | COC1C(OC(=O)c2ccccc2)C(COC(=O)c2ccccc2)OC1n1ccc(=O)[nH]c1=O (stereo unspecified) |
| 155 to 160 | Cc1c(F)cccc1N1CC(C(=O)O)CC1=O (stereo unspecified) |
| 185 | Oc1ccc(CCCn2ccnc2S)cc1 |
| 136 to 138 | CCOC(=O)c1nc(NC)sc1-c1ccncc1 |
| 163 | O=C(Nc1nc(C2CC2)no1)C(c1ccccc1)c1ccccc1 |
| 195 to 196 | CS(=O)c1ccc(-c2nc(=O)c3ccccc3s2)cn1 (stereo unspecified) |
| 146 | O=[N+]([O-])c1ccc(Cl)cc1NC12CC3CC(CC(C3)C1)C2 |
| 184 to 187 | CCCCNC(=O)c1cc(-c2csc(-c3ccc([N+](=O)[O-])cc3)n2)n(CC2CCCCC2)c1C |
| 116 to 117 | CC1(C)CC(=O)C(C(=O)Nc2cccc(C(F)(F)F)c2)C(=O)C1 |
| 66 to 68 | CC(=O)N1CCN(N)c2ccccc2C1 |
| 207 | CC(=O)Nc1ccc(C(=O)N(C)Cc2cccc(-c3ccc(CC4SC(=O)NC4=O)cc3)c2)cc1 (stereo unspecified) |
| 71.1 | CC(Br)c1ccc(C(=O)c2cccs2)cc1 (stereo unspecified) |
| 128 to 129 | N#Cc1cc([N+](=O)[O-])ccc1Oc1c(F)c(F)c(F)c(F)c1F |
| 78.5 to 82 | CNC(Cc1ccccc1NC(=O)C(C)(C)C)c1cccs1 (stereo unspecified) |
| 124 | CC(COS(C)(=O)=O)N1c2ccccc2Sc2ccc(C#N)cc21 (racemic) |
| 75.5 to 77 | CCOC(=O)C(CC(=O)c1ccc(Oc2ccc(Cl)cc2)cc1)SC(C)=O (stereo unspecified) |
| 166 to 167 | O=C(c1ccc([N+](=O)[O-])cc1)N1CCSC1=S |
| 147 to 148 | COC(=O)c1cc(-c2cccc(C(F)(F)F)c2)c(=O)n2ccccc12 |

The remaining lines, values behind:

| SMILES | melting point [°C] |
| --- | --- |
| Nc1nc(-c2cc(Cl)ccc2Cl)nc(N2CCOCC2)n1 | 189 to 191 |
| CCOC12CC(C=C(C#N)COC)=CC=C1OCO2 (stereo unspecified) | 64 to 65 |
| COc1ccc2c(NC(N)=O)c(C(=O)Nc3ccc(Cl)cc3Cl)oc2c1 | > 260 |
| O=C1Nc2cc(-n3nnn(CCCF)c3=O)c(F)cc2CC1Cl (stereo unspecified) | 114 to 118 |
| CC(C)(C)C1(Cl)Cc2cc(OCC(=O)O)c(Cl)c(Cl)c2C1=O (stereo unspecified) | 184 to 186 |
| Nc1cccc(OCc2csc(-c3ccccc3)n2)c1 | 75 to 80 |
| CCN(CC)c1ccc(C2(c3c(C)n(CC)c4ccccc34)OC(=O)c3cccnc32)c(OC2CCCC2)c1 (stereo unspecified) | 120 to 125 |
| CCOC(=O)c1cnc2c3cc(NC(=O)C(CC)CC)ccc3ncn2c1=O | 220 to 222 |
| O[C@H](COc1cccc2[nH]ccc12)CN1CCC(c2c[nH]c3c(Cl)cccc23)CC1 | 186 to 189 |
| CCC12CCC3C4CCC(=O)C=C4C=CC3C1CCC2OC(C)=O (stereo unspecified) | 163 to 177 |
| COCCN(C1CCS(=O)(=O)C1)S(=O)(=O)c1ccc(Nc2nccc(Nc3ccc(F)cc3)n2)cc1 (stereo unspecified) | 150 |
| Cc1cnc2nc(S(=O)(=O)Cl)nn2c1 | 106 to 108 |
| O=C(O)COc1cccc(OCCC(c2ccccc2)(c2ccccc2)c2ccccc2)c1 | 69 to 71 |
| CC(=C1SC(=O)NC1=O)c1cccc(OCCOc2c(-c3ccc(F)cc3C)n(C)c3ccccc3c2=O)c1 | 225 to 226 |
| O=C1N[C@@H](C(=O)N2C[C@H](O)C[C@H]2C(=O)O)CCCCCC[C@@H]1CS | 128 to 130 |
| O=C(NCc1cccnc1)c1[nH]c2ccc(Cl)cc2c1S(=O)(=O)c1ccccc1 | 263 to 264 |
| OCc1cc(OCc2ccc3ccccc3n2)no1 | 111 to 112 |
| CCOC(=O)C(=Cc1ccccc1)c1csc(N)n1 | 162 |
| O=C(C1CCN(c2c(Cl)cncc2Cl)CC1)N1CCOCC1 | 172 to 174 |
| CCC(=S)C1=C(C)NC2=C(C(=O)c3ccccc32)C1c1ccccc1 (stereo unspecified) | 248 to 249 |
| Cc1cc(Oc2ncc(C(F)(F)F)cc2Cl)nn1C(=O)Nc1cccc(C(F)(F)F)c1 | 123 to 124 |
| Cc1nc(COc2ccc(Cn3cc(CCC(=O)O)c(-c4ccccc4)c3)cc2)cs1 | 113 to 114 |
| COc1cc(CC(=O)NCCCOc2ccc(C)c(C)c2)ccc1OCCN | 103 to 106 |
| CC(=O)NC[C@H]1CN2C(=O)C[C@@H]2O1 | 82.5 to 84.5 |

| SMILES | melting point [°C] |
| --- | --- |
| OC(c1ccccc1)c1cc2ccncc2[nH]1 (stereo unspecified) | 178 to 180 |
| CCOC(=O)c1cncc(C(=O)OCC)c1 | 42 to 44 |
| Cc1cc(CN2CCN(C)CC2)cc2c1Cc1c(-c3ccsc3)n[nH]c1-2 | 235 to 236 |
| CN1Cc2c(I)ncn2-c2ccc(F)c(Cl)c2C1=O | 218 to 219 |
| CCCc1c2nc(C(=O)OCC)cc(C#N)c2cc2c(=O)cc(C(=O)OCC)oc12 | 207 to 209 |
| COc1nc2cc(Cl)ccc2n2cnnc12 | 250 to 252 |
| COc1nc(SCc2ccccc2)ncc1Br | 48 to 49 |
| CCN(CC)C(=O)Cc1c(-c2ccc(C)cc2)nc2c(C)cc(C)nn12 | 155 to 158 |
| CC(C)(C#N)c1ccc2nc(O)nnc2c1 | 183 to 185 |
| C=CCNc1nnc(-c2ccc(F)c(F)c2Nc2ccc(I)cc2F)o1 | 175 to 178 |
| Cc1sc2c(c1C)C(=O)NS2(=O)=O | 187 |
| COC(=O)C(=C(C)C)N1C(=O)[C@H](N2C(=O)c3ccccc3C2=O)[C@H]1Cl | 122 to 125 |
| O=C1C=C(CBr)C(=O)C(CCC2=CC(=O)C=C(CBr)C2=O)=C1 | 146 to 147 |
| CC(C)(C)c1cc(CCc2ccccc2NC(=O)NC2CCN(Cc3ccccc3)CC2)cc(C(C)(C)C)c1O | 79 to 81 |
| Nc1nc2[nH]c(CCCCCc3ccc(C(=O)N[C@@H](CCC(=O)O)C(=O)O)s3)cc2c(=O)[nH]1 | 181 to 182 |
| N#Cc1cccc(C2=Nc3ccc(-c4cccc(F)c4F)cc3NC(=O)C2)c1 | 240 |
| C[C@@H](c1ccc(-c2ccn(CC(F)(F)F)c(=O)c2)cc1)N1CC[C@](CC(C)(C)O)(c2ccccc2)OC1=O | 144 to 146 |
| CCOCn1c(Nc2cc(C)cc(C)c2)c(CC)c(=O)[nH]c1=O | 175 to 176 |
| Cc1cccc(-c2nc3ccccn3c2-c2ccnc(-c3ccc(C(=O)NC4CCOCC4)cc3)c2)n1 | 128 |
| CCOC(=O)c1nsc(Br)c1O | 44 to 47 |
| C=CCC1c2ccccc2Cn2cc3c(c21)C(=O)c1ccccc1C3=O (stereo unspecified) | 159 to 160 |
| O=c1cc(-c2ccncc2)nc(-c2cccnc2)[nH]1 | > 300 |
| O=S(=O)(CCN1CCOCC1)Nc1cc(C(c2cc(F)ccc2F)S(=O)(=O)c2ccc(Cl)cc2)c(Cl)cn1 (stereo unspecified) | 219 to 221 |
| CCOC(=O)Cc1csc(Sc2ccc(OCc3nc(-c4ccccc4)oc3C)cc2)n1 | 95 to 96 |
